Experimental data reported in patent US8680149B2, “1-amino-alkylcyclohexane derivatives for the treatment of mast cell mediated diseases” (Merz Pharma GmbH & Co. KGaA, priority 2008, dated 2014).

How the values were obtained:
[1] = molecular target: α9α10 nicotinic Acetylcholine Receptor (Rattus norvegicus, UniProt P43144+Q9JLB5); conditions: cited from earlier work
[2] = test system: human mast cell line HMC-1; test: Mast cell degranulation in vitro: histamine concentration in culture medium by sandwich-ELISA; assay type: cell-based; conditions: for inhibition of cholinergic agonist-induced mast cell degranulation (histamine concentration in culture supernatant): neramexane 10E-6M to 10E-16M added 5 minutes prior to cholinergic stimulus, histamine determined 10 minutes after addition; for induction of mast cell degranulation (histamine concentration in culture supernatant): calcium concentration elevated to 1 mM, histamine 10 minutes after addition; for responsiveness of HMC-1 cells (degranulation) at low calcium: low calcium concentration
Procedure: The human mast cell line HMC-1 is obtained from J. H. Butterfield (Minnesota, USA) and cultured under standard conditions in RPMI Medium 1640 (GIBCO, Karlsruhe, Germany) at 37° C. For functional assays, the calcium concentration of the medium is adjusted to 1 mM.
The Mast cell degranulation is monitored by determination of histamine concentration in the culture medium using a sandwich-ELISA from IBL (Hamburg, Germany).Histamine concentration is determined in untreated cells, medium without cells, HMC-1 cells treated with calcimycin, (a calcium ionophore,used as positive control). Additional controls to check reagibilty of the cells are LPS (lipopolysaccharide) and PMA (phorbol 12-myristate 13-acetate). Histamine concentration is determined 10 minutes after addition of the respective substances. Nicotine and choline are used as stimulus for nAChR, muscarine as stimulus for mAChR, and a combination of acetylcholine and eserine (an acetylcholinesterase inhibitor) is used as pancholinergic stimulus. Neramexane is tested at concentrations ranging from 10E-6M to 10E-16M and is added to the culture medium 5 minutes prior to the respective cholinergic stimulus. All experiments are performed twice in quadruplicate.
Statistical analysis is performed using the Wilcoxon sum-of-ranks test (available on www.statpages.net).
In order to determine the sensitivity of mast cells towards cholinergic signals, the HMC-1 cell line cultured under standard conditions with either low or high calcium concentrations is used.

[3] = neramexane at concentrations higher than 1 mM

Chain of α9α10 nicotinic Acetylcholine Receptor (P43144 26-479): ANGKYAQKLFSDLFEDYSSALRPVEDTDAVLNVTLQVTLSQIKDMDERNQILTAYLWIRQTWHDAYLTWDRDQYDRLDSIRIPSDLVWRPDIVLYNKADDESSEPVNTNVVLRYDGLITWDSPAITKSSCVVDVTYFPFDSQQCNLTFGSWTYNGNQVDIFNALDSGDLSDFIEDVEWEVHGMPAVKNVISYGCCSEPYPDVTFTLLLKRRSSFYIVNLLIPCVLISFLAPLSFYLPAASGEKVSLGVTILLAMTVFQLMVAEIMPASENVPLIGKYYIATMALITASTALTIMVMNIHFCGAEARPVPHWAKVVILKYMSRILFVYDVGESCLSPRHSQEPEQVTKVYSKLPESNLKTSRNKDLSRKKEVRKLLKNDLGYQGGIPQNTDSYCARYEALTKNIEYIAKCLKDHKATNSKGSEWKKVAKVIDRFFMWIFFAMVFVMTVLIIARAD
Chain of α9α10 nicotinic Acetylcholine Receptor (Q9JLB5 25-447): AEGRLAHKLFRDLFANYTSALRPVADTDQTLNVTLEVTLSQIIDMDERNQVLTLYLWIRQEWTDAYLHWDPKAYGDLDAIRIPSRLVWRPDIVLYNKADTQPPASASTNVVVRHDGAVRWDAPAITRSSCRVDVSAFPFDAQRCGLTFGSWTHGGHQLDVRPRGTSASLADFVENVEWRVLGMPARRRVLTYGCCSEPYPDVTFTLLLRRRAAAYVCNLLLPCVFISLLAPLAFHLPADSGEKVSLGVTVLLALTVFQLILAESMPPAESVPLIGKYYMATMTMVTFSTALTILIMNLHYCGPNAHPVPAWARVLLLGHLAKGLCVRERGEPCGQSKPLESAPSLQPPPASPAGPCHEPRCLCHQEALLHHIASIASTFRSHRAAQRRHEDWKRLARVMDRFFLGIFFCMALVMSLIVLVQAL

SMILES	inhibition of cholinergic agonist-induced mast cell degranulation (histamine concentration in culture supernatant) ([2]; HMC-1 cells, calcium 1 mM)	induction of mast cell degranulation (histamine concentration in culture supernatant) ([2]; HMC-1 cells)	responsiveness of HMC-1 cells (degranulation) at low calcium [2]	further results
CC1(C)CC(C)(C)CC(C)(N)C1 [Neramexane, 1-amino-1,3,3,5,5-pentamethylcyclohexane]	dose-dependent inhibitory effect			blockade of α9α10 nicotinic Acetylcholine Receptor [1]: blocker; mode of antagonism at α9α10 nicotinic Acetylcholine Receptor [1]: non-competitive antagonist; dependence of blockage on membrane potential [1, 3]: only slightly dependent on the membrane potential; effect on rate of desensitization [1, 3]: not to modify the rate of desensitization
CC1(C)CC(C)(C)CC(C)(N)C1.CS(=O)(=O)O [Neramexane-mesylate]	inhibits the observed effects in equimolar concentrations and, dose-dependently, even in lower concentrations than the respective agonist			
C[C@@H]1O[C@H](C[N+](C)(C)C)C[C@H]1O [muscarine]		No histamine liberation		
CNc1ccc2oc(C[C@H]3O[C@@]4(CC[C@H]3C)O[C@H]([C@H](C)C(=O)c3ccc[nH]3)[C@H](C)C[C@H]4C)nc2c1C(=O)O [calcimycine, calcimycin]			unresponsive	
CN1CCCC1c1cccnc1 (centres unmarked) [nicotine]		dose-dependently produce mast cell degranulation	unresponsive	concentration sufficient to induce complete degranulation ([2]; HMC-1 cells, calcium 1 mM): Nanomolar concentrations
